The record followed here is PMC9124820, “In vitro evaluation of fenfluramine and norfenfluramine as victims of drug interactions” (Pharmacology Research & Perspectives, 2022).

The target of the data set is T1, rCYP1A2 (Homo sapiens, UniProt P05177).
T1 construct: purchased Cypex, Ltd; host or cells: Escherichia coli
T1 sequence (P05177 1-516): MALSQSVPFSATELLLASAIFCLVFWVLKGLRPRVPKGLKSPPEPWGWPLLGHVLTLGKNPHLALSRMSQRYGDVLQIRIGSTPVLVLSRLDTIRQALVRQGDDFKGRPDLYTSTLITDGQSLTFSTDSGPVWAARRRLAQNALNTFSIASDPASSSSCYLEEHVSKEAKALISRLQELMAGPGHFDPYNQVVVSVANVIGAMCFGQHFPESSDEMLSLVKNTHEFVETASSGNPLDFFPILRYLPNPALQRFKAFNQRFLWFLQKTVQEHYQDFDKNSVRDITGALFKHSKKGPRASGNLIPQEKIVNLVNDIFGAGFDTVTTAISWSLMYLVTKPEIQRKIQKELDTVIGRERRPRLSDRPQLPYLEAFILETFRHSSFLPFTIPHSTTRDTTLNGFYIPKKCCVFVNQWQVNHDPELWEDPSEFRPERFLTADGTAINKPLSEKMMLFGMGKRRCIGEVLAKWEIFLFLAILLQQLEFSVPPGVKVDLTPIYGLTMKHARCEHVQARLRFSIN
The data set can be described thus: Reaction phenotyping with rCYP1A2. It counts as in vitro ADME. As to the method: For FFA and nFFA reaction phenotyping experiments, LC‐MS/MS experiments were performed using an API 4000 QTRAP or QTRAP 5500 mass spectrometer (SCIEX) with positive electrospray ionization. Chromatography was performed using an Atlantis dC18 analytical column (100 × 2.1 mm, 5 µm; Waters Corporation). Mobile phases were 0.2% v/v formic acid in water and 0.2% v/v formic acid in methanol. FFA and nFFA were eluted at a flow rate of 0.5 mL/min with a linear gradient of 40%−95% methanol from 0.20−2.1 min. The mass transitions monitored were 232.0>109.0 for FFA, 204.0>159.0 for nFFA, 348.0>330.0 for 1’‐hydroxymidazolam‐d4 internal standard (FFA reaction phenotyping), and 262.0>244.0 for hydroxybupropion‐d6 internal standard (nFFA reaction phenotyping). Analyst Instrument Control and Data Processing software (v. 1.6.1) was used for collecting and integrating data (SCIEX). Calibration curves ranging from 1.25 µM−0.01 µM were used to quantify nFFA. Relative quantitation was used to approximate the amount of FFA test material used.
Methods used to evaluate the role of CYP450s in the metabolism of FFA have been described.[22], [23], [24] […] Supernatant fractions were analyzed by LC‐MS/MS.

SMILES strings stand for the structures.

As to `CCNC(C)Cc1cccc(C(F)(F)F)c1` (racemic) [FFA, (RS)‐ethyl (α‐methyl‐3‐trifluoromethylphenethyl)amine], under “1 μM FFA, 25 pmol rCYP1A2, 60 min”, the “Disappearance of FFA” value amounted to 23%. Moreover, for the setting “10 μM FFA, rCYP1A2, 60 min”, the FFA loss came to 22%.
